Earlier results as cited in US20070259820A1, “METHODS AND REAGENTS FOR ACTIVATING HEAT SHOCK PROTEIN 70” (THE REGENTS OF THE UNIVERSITY OF MICHIGAN, priority 2006, published 2007).

Experiments:
Hsp70 [1] = details: prior-art statement in background
Hsp70 [2] = details: prior-art statement in background; remark: listed apart in the source

Structure (SMILES)	binding to Hsp70 in "pull-down" studies (Hsp70 [1])	effect on Hsp70's ATPase activity (Hsp70 [2])
NCCCNCCCCNC(=O)[C@H](O)NC(=O)C[C@@H](O)CCCCN=C(N)N [spergaulin]	bind Hsp70	–
N=C(N)NCCCCCCC(=O)NC(O)C(=O)NCCCCNCCCN (centres unmarked) [15-deoxyspergualin]	–	stimulate Hsp70's ATPase activity
